Values of other authors in patent US5006510A, “Method for relieving chronic pain with a somatostatin analog composition” (priority 1989, dated 1991).
Like-named read-outs stand apart in the source and are kept apart here.

Tests used:
[1] = applied topically with N-decylmethylsulfoxide; mouse skin
[2] = applied topically with N-decylmethylsulfoxide; human skin

Structure (SMILES): C[C@@H](O)[C@@H]1NC(=O)[C@H](CCCCN)NC(=O)[C@@H](Cc2c[nH]c3ccccc23)NC(=O)[C@H](Cc2ccccc2)NC(=O)[C@@H](NC(=O)[C@H](N)Cc2ccccc2)CSSC[C@@H](C(=O)N[C@H](CO)[C@@H](C)O)NC1=O [octreotide, octreotide acetate]
- skin permeation [1]: permeates both human and mouse skin
- skin permeation [2]: permeates both human and mouse skin
